Two compounds from patent US8580769B2, “Treatment of obesity, metabolic syndrome, and diabetes with protein kinase C inhibitors” (The United States of America as represented by the …, priority 2011, dated 2013) can be followed below.

The structures appear in SMILES notation.

Assay [1] deals with T1, Akt2 (Homo sapiens, UniProt P31751).
T1 construct: host or cells: primary human hepatocytes
Briefly: Akt2 activity in human hepatocytes. Format: cell-based. The protocol:
After thawing, the hepatocytes were distributed (approximately 10^6 cells per 100 mm plate) and incubated approximately 16 hours overnight in Dulbecco's minimal essential medium containing 5% fetal calf serum, 100 units/ml sodium-penicillin, 100 μg/ml streptomycin-sulfate, 1 μM insulin and 2 μM dexamethasone. After washing, cells were incubated first for 2 hours in William's E medium (Sigma-Aldrich, St. Louis, Mo., catalog no. W1878) containing GLUTAMAX™ (Gibco/Invitrogen, Carlsbad, Calif.), 100 units/ml sodium-penicillin, 100 μg/ml streptomycin-sulfate, 10 μM insulin, 100 nM dexamethasone, and then for 2 hours in William's E medium containing 100 units/ml sodium penicillin, 100 μg/ml streptomycin-sulfate, 100 nM dexamethasone, 0.25 mg/ml transferrin, 0.25 μg/ml sodium selenite and 10 μM insulin. Cells were then washed and incubated for 3 hours in the same medium, but lacking insulin. […]
Akt2 Assay: Akt2 enzyme activity was measured with a kit obtained from Upstate Cell Signaling, as described (Standaert et al., J. Biol. Chem. 279:24929-24934, 2004; Sajan et al., J. Lipid Res. 50:1133-1145, 2009; Sajan et al., Diabetologia 52:1197-1207, 2009; Farese et al., J. Clin. Invest. 117:2289-2301, 2007). […] Akt1/2 activation was also assessed by immunoblotting for phosphorylation of serine-473.

Assay [2] deals with FoxO1. The experiment in a line: serine-256 phosphorylation of FoxO1 in human hepatocytes. The note with it: inhibitor alone or with insulin. Format: cell-based. As to the method:
After thawing, the hepatocytes were distributed (approximately 10^6 cells per 100 mm plate) and incubated approximately 16 hours overnight in Dulbecco's minimal essential medium containing 5% fetal calf serum, 100 units/ml sodium-penicillin, 100 μg/ml streptomycin-sulfate, 1 μM insulin and 2 μM dexamethasone. After washing, cells were incubated first for 2 hours in William's E medium (Sigma-Aldrich, St. Louis, Mo., catalog no. W1878) containing GLUTAMAX™ (Gibco/Invitrogen, Carlsbad, Calif.), 100 units/ml sodium-penicillin, 100 μg/ml streptomycin-sulfate, 10 μM insulin, 100 nM dexamethasone, and then for 2 hours in William's E medium containing 100 units/ml sodium penicillin, 100 μg/ml streptomycin-sulfate, 100 nM dexamethasone, 0.25 mg/ml transferrin, 0.25 μg/ml sodium selenite and 10 μM insulin. Cells were then washed and incubated for 3 hours in the same medium, but lacking insulin. Where indicated, an aPKC inhibitor was then added and incubation was continued for 30 min, after which, cells were treated either for 15 min with or without 100 nM insulin for acute signaling studies, or for 6 hours, with or without 1 μM insulin for expression studies. After incubation, cells were sonicated in homogenizing buffer. […]

In assay [3] the test system is AMP-activated protein kinase. The experiment in a line: AMP-activated protein kinase activity.

T1 sequence (P31751 whole entry): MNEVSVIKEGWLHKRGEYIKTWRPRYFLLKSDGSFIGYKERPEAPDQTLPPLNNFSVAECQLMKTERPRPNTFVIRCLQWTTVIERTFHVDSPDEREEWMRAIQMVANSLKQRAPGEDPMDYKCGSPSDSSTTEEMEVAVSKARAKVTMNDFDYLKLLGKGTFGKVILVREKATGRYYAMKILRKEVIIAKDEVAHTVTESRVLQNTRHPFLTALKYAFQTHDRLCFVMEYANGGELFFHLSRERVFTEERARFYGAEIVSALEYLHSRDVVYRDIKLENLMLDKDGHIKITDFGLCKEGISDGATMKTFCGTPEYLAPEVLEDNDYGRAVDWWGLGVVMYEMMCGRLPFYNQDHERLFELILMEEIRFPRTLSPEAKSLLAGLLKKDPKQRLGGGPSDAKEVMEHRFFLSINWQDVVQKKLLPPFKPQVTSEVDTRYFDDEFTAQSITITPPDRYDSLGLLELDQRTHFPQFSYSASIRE

With `NC(=O)c1ncn([C@@H]2C[C@H](COP(=O)(O)O)[C@@H](O)[C@H]2O)c1N` [ICAPP, 1H-imidazole-4-carboxamide, 5-amino-1-[2,3-dihydroxy-4-[(phosphonooxy)methyl]cyclopentyl]-[1R-(1α,2β,3β,4α)]], in assay [1], the “insulin-induced increases in Akt activity” value was “neither ICAPP nor ATM inhibited”. Besides, the FoxO1 phosphorylation entry in assay [2] is recorded as “insulin-like, or enhanced insulin, effects”. The “AMP-activated protein kinase activity” value in assay [3] was “neither ICAPP nor ATM altered”.

On to `O=C([O-])CC([S][Au])C(=O)[O-]` (stereo not drawn) [ATM, aurothiomalate, reference compound], for which the “insulin-induced increases in Akt activity” value in assay [1] was “neither ICAPP nor ATM inhibited”. Also, the FoxO1 phosphorylation result in assay [2] was “insulin-like, or enhanced insulin, effects”. In addition, in assay [3], the “AMP-activated protein kinase activity” value is given as “neither ICAPP nor ATM altered”.
